A short description of one data set: in vitro. To be noted: Sprague Dawley, rat, microsomes.
The conditions of data set [1]: human, microsomes, 1 μM.
For data set [2] the following is noted: Sprague Dawley, rat, microsomes, 1 h, 1 μM.
In data set [3] the test system is IL-1β, TNF-α and IL-10 levels in animals with MCAo. Further details: method as in PMID 35631536. To be noted: cited from earlier work.
Data set [4] in a line: Pharmacokinetic evaluations of 3,6’-DP in rats. The data set is classed as in vivo, rat. To be noted: authors' recent pharmacokinetic evaluations, no data shown.
On the set-up of data set [5]: method as in PMID 32589144. To be noted: cited from earlier work.
The conditions of data set [6]: cited from earlier work.
On the set-up of data set [7]: method as in earlier work. To be noted: nonhuman primate (cynomolgus monkey); cited from earlier work.
Data set [8] deals with LPS-induced cytokines (TNF-α, IL-6, IL-10, IL-13) in plasma and cerebral cortex. As to the kind of experiment: Systemic and brain LPS anti-inflammatory study in rats. To be noted: rat, 1 h pre-treatment, 3-MP 13.23 and 26.47 mg/kg I.P., pomalidomide 25 mg/kg I.P., LPS 1 mg/kg I.P., 4 h. The data set is classed as in vivo.
For data set [9] the test system is unchanged. Described as above. The class given is in vivo. To be noted: rat, LPS 1 mg/kg, 4 h. On the procedure: They were administered, via the intraperitoneal (I.P.) route, nano-formulated 3-MP at a dose of 13.25 or 26.5 mg/kg (equimolar to a clinically translatable dose of 12.5 and 25 mg/kg thalidomide), vehicle or pomalidomide (25 mg/kg). One hour later, animals were administered either LPS (1 mg/kg, E.Coli 055:B5, Sigma Aldrich, in normal saline, 0.5 mg/mL) or an alike volume of saline (without LPS) via the I.P. route. The LPS dose was selected from prior pilot studies to provide a substantial but sub-maximal rise in plasma proinflammatory cytokine levels, in line with our prior research. The selected 3-MP and pomalidomide doses were chosen as they are equimolar to, or are less than, doses of thalidomide and analogues that have been verified to be well tolerated in our previous studies and are of translational relevance to humans. Four hours after LPS administration, the animals were euthanized, and blood and brain tissues were collected and placed on wet ice. Plasma was quickly separated from blood by centrifugation (10,000 × g, 5 min, 4 °C) and together with the brain samples (cerebral cortex) was stored at − 80 °C. At a later time, cerebral cortex samples were sonicated in a TRIS-based lysis buffer (Mesoscale Discovery) with 3 × protease/phosphatase inhibitors (Halt™ Protease and Phosphatase Inhibitor Cocktail, Thermo Fisher Scientific, Waltham, MA, USA). Samples were then centrifuged (10,000 × g, 5 min, 4 °C), supernatant separated, and protein concentrations were quantified by bicinchoninic acid assay (BCA, Thermo Fisher Scientific). Rat plasma and cerebral cortex samples were analyzed by multi-proinflammatory cytokine ELISA (V-PLEX Proinflammatory Panel 2 Rat Kit, Mesoscale Discovery) following the manufacturer’s protocol to quantify TNF-α, IL-6, IL-10, and IL-13 levels.

Details of data set [10]: method as in earlier work. To be noted: rat; cited from earlier work.
Data set [11] in a line: Liver microsomal stability, rat.
Data set [12] in a line: Liver microsomal stability, human. To be noted: 1 μM. On the technique in general: Liver microsomes are a subcellular fraction often used to study metabolism.
The mark [13] stands for this setting: Sprague Dawley, rat, microsomes.

What is called CLint scaled is the capacity of the preparation to metabolise the compound, expressed as a volume cleared per time. One may read the microsomal CLint as a measure of how fast metabolising enzymes remove a compound, apart from limits set by blood flow. A lower microsomal CLint goes with greater metabolic stability. What is called bioavailability is dose-corrected exposure relative to a reference, in per cent.

Where two headings read alike, the source gives them in different places.

`O=C(O)Cc1ccccc1Nc1c(Cl)cccc1Cl` [Diclofenac, diclofenac, reference compound]: in the data set “in vitro”, the CLint scaled at 1 μM came out at 227 mL/min/kg and the microsomal CLint at 1 μM came out at 126 µL/min/mg. Moreover, in data set [1], the “Clint(liver)” value was 292.3 mL/min/kg and the “Clint(mic)” value came out at 324.8 µL/min/mg. In addition, in [1] (1 h), the “Remaining (NCF = 60 min)” value is listed as 101.0% and the “Remaining (T = 60 min)” value is 0.0%. Moreover, in [2], the “Remaining (NCF = 60 min)” value amounted to 107.9% and the “Remaining (T = 60 min)” value came to 2.2%.
In the case of `Nc1cccc2c1C(=S)N(C1CCC(=S)NC1=O)C2=O` (stereo not shown) [3,6’-DP, 3,6’-dithiopomalidomide], in data set [3], the IL-1β levels result is “significantly reduce”, the IL-10 levels entry is given as “increased substantially” and the TNF-α levels result is reported as “significantly reduce”. Also, in [4], the disappearance from plasma result is given as “disappears relatively rapidly” and the oral bioavailability entry is “low”. The brain/plasma concentration ratio in data set [5] is on record as 0.8.
As for `Nc1cccc2c1C(=O)N(C1CCC(=O)NC1=O)C2=O` (stereo not shown) [pomalidomide], in data set [6], the brain/plasma concentration ratio is 0.71. Besides, the bioavailability is on record as 15% in data set [7] and 13% in data set [10]. For the same compound, the “LPS-induced cytokine changes in plasma and cerebral cortex” value in [8] was “significantly mitigated”. Besides, the “LPS-mediated elevations in brain IL-13” value in data set [9] (3-MP both doses and pomalidomide I.P.) was “maintained”. In addition, the “decline in IL-6 brain levels” value in [9] (3-MP low dose 13.25 mg/kg I.P., pomalidomide 25 mg/kg I.P.) is on record as “failed to achieve statistical significance”. Further, the “IL-10 elevation induced by LPS in plasma or brain” value in data set [9] (high- or low-dose 3-MP or pomalidomide I.P.) is listed as “not lessened”.
`C[C@]12CC[C@H]3[C@@H](CCC4=CC(=O)CC[C@@]43C)[C@@H]1CC[C@@H]2O` [Testosterone, testosterone]: in data set [11] (setting [13]), the CLint scaled at 1 μM came to 3910 mL/min/kg. This compound showed an intrinsic clearance (microsomal CLint) at 1 μM in [11] (setting [13]) of 2170 µL/min/mg. Further, the “Remaining (T = 60 min)” value worked out at 0.1% in data set [11] (rat liver microsomes with NADPH, 1 μM, 60 min) and 13.2% in data set [12] (human liver microsomes with NADPH, 60 min). The “Remaining (NCF = 60 min)” value in data set [11] (rat liver microsomes, no co-factor (no NADPH), 1 μM, 60 min) worked out at 103.7%; in data set [12] (human liver microsomes, no co-factor (no NADPH), 60 min), 97.1%. Further, in data set [12] (human liver microsomes with NADPH, scaled from Clint(mic)), the “Clint(liver)” value is 59.0 mL/min/kg.

Source of the values: paper PMC12397098, “3-Monothiopomalidomide, a new immunomodulatory imide drug (IMiD), blunts inflammation and mitigates ischemic stroke in the rat” (GeroScience, 2025).
